One may read the half-life as the time needed for the level to fall by half in the phase considered. Low values mean fast loss, high ones slow loss.

Drawing on patent publication US12473594B2, “Chemical tagging-based method for modified nucleoside sequencing, enrichment, and measurement” (PEKING UNIVERSITY, priority 2019, dated 2025), this text covers half-life for one compound.

The structures appear in SMILES notation.

The nature of this data set: Half-life of DTT-6-A and hm^6A in aqueous solutions with different pH values. As to conditions: aqueous solution, neutral environment. It is filed as physicochemical. How it is done: In order to study whether the stability of product (DTT-6-A) produced by the reaction of hm^6A and DTT was improved compared with hm^6A, half-life of DTT-6-A in aqueous solutions with different pH values was measured.

Compound `OCNc1ncnc2c1ncn2[C@@H]1O[C@H](CO)[C@@H](O)[C@H]1O` [hm^6A, N^6-hydroxymethyl adenine nucleoside] showed a half-life of 2 h.
